# Laboratory results taken from US20250243196A1, “CITRON KINASE INHIBITORS” (The Cleveland Clinic Foundation, priority 2021, published 2025).
# Key:
# Assay type in all cases: biochemical
# MEKK2(h) = MEKK2(h) (Homo sapiens (Human), UniProt Q9Y2U5); assay: KinaseProfiler panel; settings: activity remaining
# DYRK2(h) = DYRK2(h) (Homo sapiens (Human), UniProt Q92630); assay: KinaseProfiler panel; set-up: dose or concentration left out as unconfirmed; settings: activity remaining
# DCAMKL3(h) = DCAMKL3(h) (Homo sapiens (Human), UniProt Q9C098); assay: KinaseProfiler panel; set-up: dose or concentration left out as unconfirmed; settings: activity remaining
# Citron kinase = Citron kinase (Homo sapiens (Human), UniProt O14578); assay: Radiometric citron kinase assay (Eurofins Cat #16-040KP); settings: mean of at least two independent assays; read-out: Radiometric CitK IC50
# Method in brief: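 Radiometric KinaseProfiler format: test compound incubated with kinase, substrate, cofactors and radiolabelled ATP; unreacted ATP washed away and radiolabelled phosphate incorporated into substrate measured. IC50 derived from inhibition of phosphorylation. Values are means of at least two independent assays.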
# WNK2(h) = WNK2(h) (Homo sapiens (Human), UniProt Q9Y3S1); assay: KinaseProfiler panel; set-up: dose or concentration left out as unconfirmed; settings: activity remaining
# Snk(h) = Snk(h) (Homo sapiens (Human), UniProt Q9NYY3); assay: KinaseProfiler panel; set-up: dose or concentration left out as unconfirmed; settings: activity remaining
# TRB2(h) = TRB2(h) (Homo sapiens (Human), UniProt Q92519); assay: KinaseProfiler panel; set-up: dose or concentration left out as unconfirmed; settings: activity remaining
# Sequence of TRB2(h) (Q92519 whole entry): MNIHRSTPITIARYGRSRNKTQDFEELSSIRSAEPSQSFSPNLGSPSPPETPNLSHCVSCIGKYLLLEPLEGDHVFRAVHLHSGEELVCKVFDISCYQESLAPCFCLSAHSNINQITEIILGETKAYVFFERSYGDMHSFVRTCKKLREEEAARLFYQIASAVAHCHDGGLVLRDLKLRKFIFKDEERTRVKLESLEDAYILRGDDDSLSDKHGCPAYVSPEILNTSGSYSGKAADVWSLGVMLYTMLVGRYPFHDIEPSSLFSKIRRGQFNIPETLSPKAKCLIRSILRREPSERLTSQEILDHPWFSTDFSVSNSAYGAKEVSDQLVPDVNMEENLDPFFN
# IRAK4(h) = IRAK4(h) (Homo sapiens (Human), UniProt Q9NWZ3); assay: KinaseProfiler panel; set-up: dose or concentration left out as unconfirmed; settings: activity remaining
# Sequence of IRAK4(h) (Q9NWZ3 whole entry): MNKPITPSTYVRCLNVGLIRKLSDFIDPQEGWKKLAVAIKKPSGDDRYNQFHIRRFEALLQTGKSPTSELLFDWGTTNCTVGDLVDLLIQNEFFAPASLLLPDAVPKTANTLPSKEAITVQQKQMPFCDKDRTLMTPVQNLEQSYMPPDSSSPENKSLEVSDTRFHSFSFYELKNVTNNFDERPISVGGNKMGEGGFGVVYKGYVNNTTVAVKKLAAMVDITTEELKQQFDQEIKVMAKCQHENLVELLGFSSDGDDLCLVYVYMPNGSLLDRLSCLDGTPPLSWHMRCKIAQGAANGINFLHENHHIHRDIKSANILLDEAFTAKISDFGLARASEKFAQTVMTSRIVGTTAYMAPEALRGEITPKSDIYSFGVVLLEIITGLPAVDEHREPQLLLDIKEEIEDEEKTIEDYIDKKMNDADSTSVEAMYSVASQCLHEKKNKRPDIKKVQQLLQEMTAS
# ICK(h) = ICK(h) (Homo sapiens (Human), UniProt Q9UPZ9); assay: KinaseProfiler panel; settings: activity remaining
# Sequence of ICK(h) (Q9UPZ9 whole entry): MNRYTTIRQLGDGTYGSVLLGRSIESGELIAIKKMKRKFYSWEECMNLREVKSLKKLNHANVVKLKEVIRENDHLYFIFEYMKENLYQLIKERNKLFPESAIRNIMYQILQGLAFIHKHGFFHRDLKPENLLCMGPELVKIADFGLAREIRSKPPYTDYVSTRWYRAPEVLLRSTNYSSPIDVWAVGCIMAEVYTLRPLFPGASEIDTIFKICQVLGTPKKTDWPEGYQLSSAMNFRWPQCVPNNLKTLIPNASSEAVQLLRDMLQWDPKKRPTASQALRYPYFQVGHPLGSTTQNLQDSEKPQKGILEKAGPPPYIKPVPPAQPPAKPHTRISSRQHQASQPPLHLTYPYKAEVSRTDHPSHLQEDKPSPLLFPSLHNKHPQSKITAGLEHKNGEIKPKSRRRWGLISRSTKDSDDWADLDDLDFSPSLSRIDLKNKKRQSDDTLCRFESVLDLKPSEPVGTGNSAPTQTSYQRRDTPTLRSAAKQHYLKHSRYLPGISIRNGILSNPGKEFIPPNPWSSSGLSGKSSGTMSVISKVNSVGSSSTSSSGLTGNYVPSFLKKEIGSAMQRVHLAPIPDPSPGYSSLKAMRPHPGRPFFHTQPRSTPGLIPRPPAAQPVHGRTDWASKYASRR
# Lyn(h) = Lyn(h) (Homo sapiens (Human), UniProt P07948); assay: KinaseProfiler panel; set-up: dose or concentration left out as unconfirmed; settings: activity remaining
# MARK3(h) = MARK3(h) (Homo sapiens (Human), UniProt P27448); assay: KinaseProfiler panel; set-up: dose or concentration left out as unconfirmed; settings: activity remaining
# Sequence of MARK3(h) (P27448 whole entry): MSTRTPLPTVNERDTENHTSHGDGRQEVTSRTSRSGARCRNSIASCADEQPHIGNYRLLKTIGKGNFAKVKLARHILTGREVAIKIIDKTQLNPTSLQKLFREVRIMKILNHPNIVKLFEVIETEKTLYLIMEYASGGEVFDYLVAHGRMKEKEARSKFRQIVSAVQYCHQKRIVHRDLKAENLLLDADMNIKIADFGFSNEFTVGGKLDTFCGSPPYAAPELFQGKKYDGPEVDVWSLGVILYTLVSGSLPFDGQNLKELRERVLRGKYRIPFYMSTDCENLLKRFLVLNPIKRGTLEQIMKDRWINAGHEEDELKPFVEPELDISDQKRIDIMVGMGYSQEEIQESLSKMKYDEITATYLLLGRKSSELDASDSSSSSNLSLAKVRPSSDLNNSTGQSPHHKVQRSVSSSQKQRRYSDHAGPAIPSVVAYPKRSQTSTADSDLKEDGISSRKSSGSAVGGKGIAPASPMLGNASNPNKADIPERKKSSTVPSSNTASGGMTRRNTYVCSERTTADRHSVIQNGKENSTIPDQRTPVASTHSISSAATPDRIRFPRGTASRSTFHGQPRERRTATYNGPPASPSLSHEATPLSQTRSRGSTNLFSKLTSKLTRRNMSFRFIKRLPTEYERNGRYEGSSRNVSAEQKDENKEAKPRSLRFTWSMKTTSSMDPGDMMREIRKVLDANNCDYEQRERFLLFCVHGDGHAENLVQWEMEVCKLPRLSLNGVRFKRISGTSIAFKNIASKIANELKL
# MINK(h) = MINK(h) (Homo sapiens (Human), UniProt Q8N4C8); assay: KinaseProfiler panel; set-up: dose or concentration left out as unconfirmed; settings: activity remaining
# SBK1(h) = SBK1(h) (Homo sapiens (Human), UniProt Q52WX2); assay: KinaseProfiler panel; set-up: dose or concentration left out as unconfirmed; settings: activity remaining
# Sequence of SBK1(h) (Q52WX2 whole entry): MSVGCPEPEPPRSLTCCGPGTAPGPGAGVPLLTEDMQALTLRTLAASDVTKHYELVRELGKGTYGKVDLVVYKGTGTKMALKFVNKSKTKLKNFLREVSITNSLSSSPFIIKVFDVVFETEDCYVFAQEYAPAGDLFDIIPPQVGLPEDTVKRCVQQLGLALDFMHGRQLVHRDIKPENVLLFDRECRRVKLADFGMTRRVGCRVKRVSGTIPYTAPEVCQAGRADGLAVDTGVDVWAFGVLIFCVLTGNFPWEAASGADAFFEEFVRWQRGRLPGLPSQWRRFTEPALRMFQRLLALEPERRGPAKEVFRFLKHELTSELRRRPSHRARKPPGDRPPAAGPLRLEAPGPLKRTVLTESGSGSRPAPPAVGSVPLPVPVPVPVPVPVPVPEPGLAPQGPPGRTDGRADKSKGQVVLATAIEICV
# PKBβ(h) = PKBβ(h) (Homo sapiens (Human), UniProt P31751); assay: KinaseProfiler panel; set-up: dose or concentration left out as unconfirmed; settings: activity remaining
# Sequence of PKBβ(h) (P31751 whole entry): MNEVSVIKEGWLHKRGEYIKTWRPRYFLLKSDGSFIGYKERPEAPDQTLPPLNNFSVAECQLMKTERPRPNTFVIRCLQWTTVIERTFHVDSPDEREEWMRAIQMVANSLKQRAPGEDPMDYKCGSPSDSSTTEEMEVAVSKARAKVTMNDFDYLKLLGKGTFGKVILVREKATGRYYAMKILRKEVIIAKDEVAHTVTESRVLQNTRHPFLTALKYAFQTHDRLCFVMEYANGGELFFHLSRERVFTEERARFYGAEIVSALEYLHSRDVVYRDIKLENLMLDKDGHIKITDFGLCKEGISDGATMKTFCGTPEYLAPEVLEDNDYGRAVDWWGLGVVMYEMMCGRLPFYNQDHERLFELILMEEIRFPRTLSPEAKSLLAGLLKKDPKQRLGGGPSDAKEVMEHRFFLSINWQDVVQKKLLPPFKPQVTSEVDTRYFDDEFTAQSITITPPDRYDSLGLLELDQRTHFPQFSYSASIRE
# TSSK1(h) = TSSK1(h) (Homo sapiens (Human), UniProt Q9BXA7); assay: KinaseProfiler panel; set-up: dose or concentration left out as unconfirmed; settings: activity remaining
# STK32B(h) = STK32B(h) (Homo sapiens (Human), UniProt Q9NY57); assay: KinaseProfiler panel; set-up: dose or concentration left out as unconfirmed; settings: activity remaining
# Sequence of STK32B(h) (Q9NY57 whole entry): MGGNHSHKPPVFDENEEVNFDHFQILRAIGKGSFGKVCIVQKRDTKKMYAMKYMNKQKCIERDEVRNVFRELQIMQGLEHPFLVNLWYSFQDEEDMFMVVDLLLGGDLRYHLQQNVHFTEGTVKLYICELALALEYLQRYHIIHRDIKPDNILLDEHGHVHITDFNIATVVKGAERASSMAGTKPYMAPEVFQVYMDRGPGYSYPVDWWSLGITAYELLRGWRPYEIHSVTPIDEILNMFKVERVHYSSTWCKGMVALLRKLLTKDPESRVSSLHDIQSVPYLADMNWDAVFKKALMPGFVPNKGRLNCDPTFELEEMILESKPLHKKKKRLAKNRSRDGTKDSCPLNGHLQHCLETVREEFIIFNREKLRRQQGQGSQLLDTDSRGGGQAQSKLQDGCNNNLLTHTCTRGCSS
# PKBα(h) = PKBα(h) (Homo sapiens (Human), UniProt P31749); assay: KinaseProfiler panel; set-up: dose or concentration left out as unconfirmed; settings: activity remaining
# TSSK3(h) = TSSK3(h) (Homo sapiens (Human), UniProt Q96PN8); assay: KinaseProfiler panel; set-up: dose or concentration left out as unconfirmed; settings: activity remaining
# PAK5(h) = PAK5(h) (Homo sapiens (Human), UniProt Q9P286); assay: KinaseProfiler panel; set-up: dose or concentration left out as unconfirmed; settings: activity remaining
# MSK2(h) = MSK2(h) (Homo sapiens (Human), UniProt O75676); assay: KinaseProfiler panel; set-up: dose or concentration left out as unconfirmed; settings: activity remaining
# TGFBR1(h) = TGFBR1(h) (Homo sapiens (Human), UniProt P36897); assay: KinaseProfiler panel; set-up: dose or concentration left out as unconfirmed; settings: activity remaining
# Syk(h) = Syk(h) (Homo sapiens (Human), UniProt P43405); assay: KinaseProfiler panel; set-up: dose or concentration left out as unconfirmed; settings: activity remaining
# WNK1(h) = WNK1(h) (Homo sapiens (Human), UniProt Q9H4A3); assay: KinaseProfiler panel; set-up: dose or concentration left out as unconfirmed; settings: activity remaining
# TNIK(h) = TNIK(h) (Homo sapiens (Human), UniProt Q9UKE5); assay: KinaseProfiler panel; settings: activity remaining
# Ret(h) = Ret(h) (Homo sapiens (Human), UniProt P07949); assay: KinaseProfiler panel; set-up: dose or concentration left out as unconfirmed; settings: activity remaining
# CDK13/cyclinK(h) = CDK13/cyclinK(h) (Homo sapiens (Human), UniProt Q14004); assay: KinaseProfiler panel; set-up: dose or concentration left out as unconfirmed; settings: activity remaining
# MKK6(h) = MKK6(h) (Homo sapiens (Human), UniProt P52564); assay: KinaseProfiler panel; set-up: dose or concentration left out as unconfirmed; settings: activity remaining
# TrkB(h) = TrkB(h) (Homo sapiens (Human), UniProt Q16620); assay: KinaseProfiler panel; set-up: dose or concentration left out as unconfirmed; settings: activity remaining
# Sequence of TrkB(h) (Q16620 32-822): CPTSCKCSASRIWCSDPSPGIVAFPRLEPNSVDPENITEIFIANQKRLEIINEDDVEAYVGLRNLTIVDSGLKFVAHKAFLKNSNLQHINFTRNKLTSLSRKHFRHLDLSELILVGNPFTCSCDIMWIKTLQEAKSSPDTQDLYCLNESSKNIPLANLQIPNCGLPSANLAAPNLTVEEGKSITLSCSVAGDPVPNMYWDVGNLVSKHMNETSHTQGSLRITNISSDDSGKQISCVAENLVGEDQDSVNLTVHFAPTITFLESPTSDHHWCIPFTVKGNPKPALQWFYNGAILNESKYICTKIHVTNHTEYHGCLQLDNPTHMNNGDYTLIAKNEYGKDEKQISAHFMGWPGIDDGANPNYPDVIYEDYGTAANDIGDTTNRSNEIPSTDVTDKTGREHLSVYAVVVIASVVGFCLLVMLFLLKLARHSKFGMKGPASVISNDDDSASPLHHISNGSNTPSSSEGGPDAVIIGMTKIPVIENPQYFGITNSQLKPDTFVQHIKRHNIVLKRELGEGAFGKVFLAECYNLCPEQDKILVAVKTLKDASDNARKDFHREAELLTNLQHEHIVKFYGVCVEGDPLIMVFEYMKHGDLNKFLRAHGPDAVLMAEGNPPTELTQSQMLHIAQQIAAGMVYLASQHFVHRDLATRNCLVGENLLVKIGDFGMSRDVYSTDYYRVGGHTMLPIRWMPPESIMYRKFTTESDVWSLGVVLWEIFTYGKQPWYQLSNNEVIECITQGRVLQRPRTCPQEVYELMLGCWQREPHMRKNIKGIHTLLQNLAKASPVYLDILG
# Sequence of MEKK2(h) (Q9Y2U5 whole entry): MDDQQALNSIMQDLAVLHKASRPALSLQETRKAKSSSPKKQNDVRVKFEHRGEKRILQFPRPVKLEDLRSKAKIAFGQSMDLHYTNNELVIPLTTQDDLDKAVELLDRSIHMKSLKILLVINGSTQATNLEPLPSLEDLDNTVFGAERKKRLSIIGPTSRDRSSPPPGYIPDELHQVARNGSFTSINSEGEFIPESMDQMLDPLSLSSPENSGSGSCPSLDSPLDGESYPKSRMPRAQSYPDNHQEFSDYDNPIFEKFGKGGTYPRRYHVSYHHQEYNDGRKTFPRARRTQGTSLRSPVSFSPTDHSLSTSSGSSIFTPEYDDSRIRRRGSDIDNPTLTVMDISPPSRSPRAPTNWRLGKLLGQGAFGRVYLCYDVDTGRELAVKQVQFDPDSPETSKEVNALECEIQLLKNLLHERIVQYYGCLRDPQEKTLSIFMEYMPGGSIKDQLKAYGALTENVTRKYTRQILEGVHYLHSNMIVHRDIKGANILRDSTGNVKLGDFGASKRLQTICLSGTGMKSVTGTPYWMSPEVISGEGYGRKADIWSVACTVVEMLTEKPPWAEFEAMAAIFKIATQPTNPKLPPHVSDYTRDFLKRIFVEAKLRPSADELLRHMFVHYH
compound,measurement,setting,value
"Cc1cc2c(-c3ccc(NC(=O)[C@H](N)CC(C)(C)C)cc3C)ccnc2[nH]1 [Compound F-90, (2R)-2-Amino-4,4-dimethyl-N-[3-methyl-4-(2-methyl-1H-pyrrolo[2,3-b]pyridin-4-yl)phenyl]pentanamide]",% Activity,MEKK2(h),122%
same,% Activity,DYRK2(h),101%
same,% Activity,DCAMKL3(h),86%
same,IC50,Citron kinase,12 nM
same,% Activity,WNK2(h),94%
same,% Activity,Snk(h),94%
same,% Activity,TRB2(h),104%
same,% Activity,IRAK4(h),90%
same,% Activity,ICK(h),99%
same,% Activity,Lyn(h),80%
same,% Activity,MARK3(h),90%
same,% Activity,MINK(h),89%
same,% Activity,SBK1(h),97%
same,% Activity,PKBβ(h),109%
same,% Activity,TSSK1(h),116%
same,% Activity,STK32B(h),115%
same,% Activity,PKBα(h),87%
same,% Activity,TSSK3(h),96%
same,% Activity,PAK5(h),87%
same,% Activity,MSK2(h),88%
same,% Activity,TGFBR1(h),103%
same,% Activity,Syk(h),66%
same,% Activity,WNK1(h),109%
same,% Activity,TNIK(h),93%
same,% Activity,Ret(h),97%
same,% Activity,CDK13/cyclinK(h),99%
same,% Activity,MKK6(h),101%
same,% Activity,TrkB(h),84%
